Km data for two compounds are collected here from publication PMC10363510 (Plant Communications, 2023).

The subject of this assay is SiAT1. Nature of the assay: HPLC product assay, Michaelis-Menten fit. In kind it is biochemical, Sesamum indicum. The settings on record: read-out: apparent Km; 75 mM salidroside, 50 mM Tris-HCl pH 7.4, 30°C.

On to `CC(C)(COP(=O)(O)OP(=O)(O)OC[C@H]1O[C@@H](n2cnc3c(N)ncnc32)[C@H](O)[C@@H]1OP(=O)(O)O)[C@@H](O)C(=O)NCCC(=O)NCCSC(=O)/C=C/c1ccc(O)c(O)c1` [caffeoyl-CoA], for which the Km was 1.13 ± 0.42 µM.

Regarding `CC(C)(COP(=O)(O)OP(=O)(O)OC[C@H]1O[C@@H](n2cnc3c(N)ncnc32)[C@H](O)[C@@H]1OP(=O)(O)O)[C@@H](O)C(=O)NCCC(=O)NCCSC(=O)/C=C/c1ccc(O)cc1` [p-coumaroyl-CoA], the Km was determined as 1.66 ± 0.39 µM.

As a reminder, the Km is the concentration of substrate that gives half-maximal velocity.
